The supplement of paper PMC9013687

Tests used:
Danio rerio embryo [1] = test: spontaneous tail coiling frequency (coils/min/embryo); higher = more spontaneous movement; details: 1473.4 µM; 25 hpf
Procedure: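 Spontaneous tail coilings of zebrafish embryos exposed from 2 hpf were recorded at 24-25 hpf in 1-min videos and detected by a KNIME workflow from grey-value variance. Betamethasone was tested as the dipropionate, diflorasone as the diacetate.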

Danio rerio embryo [2] = test: EC10 Curvature_Increase; higher = less potent
Procedure: (§1)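 Zebrafish embryos (UFZ-OBI strain) were exposed from 2 hpf for 48 h (2 dpf) or 96 h (4 dpf) at 28 °C; spontaneous tail coiling was scored at 25 hpf. Morphological features from automated image analysis (FishInspector), heart rate and locomotor response were fitted with drc models. Quantal endpoints were dichotomised at 2.5 SD from controls and fitted with a log-logistic model; heart rate, pigmentation and STC were normalised to the replicate control mean. Betamethasone was tested as betamethasone dipropionate, diflorasone as diflorasone diacetate.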

Danio rerio embryo [3] = test: EC10 Lack of SB; higher = less potent; details: exposure time: 4 dpf
Procedure: as §1

Danio rerio embryo [4] = test: EC20 Any effect; higher = less potent
Procedure: as §1

Danio rerio embryo [5] = details: exposure time: 4 dpf
Procedure: as §1

Danio rerio embryo [6] = test: EC50 Body length_Decrease; details: exposure time: 4 dpf
Procedure: as §1

Danio rerio embryo [7] = test: EC20 Bladder size_Decrease; higher = less potent; details: exposure time: 4 dpf
Procedure: as §1

Danio rerio embryo [8] = tested on: Danio rerio embryo
Procedure: as §1

Danio rerio embryo [9] = test: EC20 Curvature_Increase; higher = less potent
Procedure: as §1

Danio rerio embryo [10] = test: EC20 Otolith-eye distance_Decrease; higher = less potent; details: exposure time: 4 dpf
Procedure: as §1

Danio rerio embryo [11] = test: EC20 LMR dark; higher = less potent; details: exposure time: 4 dpf
Procedure: as §1

Danio rerio embryo [12] = test: EC10 LMR dark; higher = less potent; details: exposure time: 4 dpf
Procedure: as §1

Danio rerio embryo [13] = test: EC10 Otolith-eye distance_Decrease; higher = less potent; details: exposure time: 4 dpf
Procedure: as §1

Danio rerio embryo [14] = test: EC10 Any effect; higher = less potent
Procedure: as §1

Danio rerio embryo [15] = test: EC20 Pericard size_Increase; higher = less potent
Procedure: as §1

Danio rerio embryo [16] = test: EC20 Heart rate; higher = less potent; details: exposure time: 4 dpf
Procedure: as §1

Danio rerio embryo [17] = test: EC20 Eye-jaw distance_Decrease; higher = less potent; details: exposure time: 4 dpf
Procedure: as §1

Danio rerio embryo [18] = test: EC10 Heart rate; higher = less potent; details: exposure time: 4 dpf
Procedure: as §1

Danio rerio embryo [19] = test: EC50 Pericard size_Increase
Procedure: as §1

Danio rerio embryo [20] = test: EC20 Lack of SB; higher = less potent; details: exposure time: 4 dpf
Procedure: as §1

Danio rerio embryo [21] = details: exposure time: 4 dpf; remark: listed apart in the source
Procedure: as §1

Danio rerio embryo [22] = test: EC20 Body length_Decrease; higher = less potent; details: exposure time: 4 dpf
Procedure: as §1

**Q.** What does the source list for `CC1(C)O[C@@H]2[C@@H](CO[C@@]3(COS(N)(=O)=O)OC(C)(C)O[C@@H]23)O1` [Topiramate]?
**A.** spontaneous tail coiling frequency (Danio rerio embryo [1]): 2.59; EC10 Curvature Increase (Danio rerio embryo [2]; exposure time: 2 dpf): 986 µM; EC10 Curvature Increase (Danio rerio embryo [2]; exposure time: 4 dpf): 455 µM; EC10 Lack of SB (Danio rerio embryo [3]): 29.7 µM; EC20 Any effect (Danio rerio embryo [4]; exposure time: 2 dpf): 59.1 µM; EC20 Any effect (Danio rerio embryo [4]; exposure time: 4 dpf): 38.7 µM; EC50 Lack of SB (Danio rerio embryo [5]): 69.7 µM; EC50 Body length Decrease (Danio rerio embryo [6]): 142 µM; EC20 Bladder size Decrease (Danio rerio embryo [7]): 34.7 µM; EC50 Any effect (Danio rerio embryo [8]; exposure time: 2 dpf): 321 µM; EC50 Any effect (Danio rerio embryo [8]; exposure time: 4 dpf): 94.9 µM; EC20 Curvature Increase (Danio rerio embryo [9]; exposure time: 2 dpf): 1080 µM; EC20 Curvature Increase (Danio rerio embryo [9]; exposure time: 4 dpf): 591 µM; EC20 Otolith-eye distance Decrease (Danio rerio embryo [10]): 37.9 µM; EC20 LMR dark (Danio rerio embryo [11]): 331 µM; EC10 LMR dark (Danio rerio embryo [12]): 273 µM; EC10 Otolith-eye distance Decrease (Danio rerio embryo [13]): 24.4 µM; EC10 Any effect (Danio rerio embryo [14]; exposure time: 2 dpf): 22 µM; EC10 Any effect (Danio rerio embryo [14]; exposure time: 4 dpf): 22.9 µM; EC20 Pericard size Increase (Danio rerio embryo [15]; exposure time: 2 dpf): 33 µM; EC20 Pericard size Increase (Danio rerio embryo [15]; exposure time: 4 dpf): 302 µM; EC20 Heart rate (Danio rerio embryo [16]): 28.3 µM; EC20 Eye-jaw distance Decrease (Danio rerio embryo [17]): 165 µM; EC10 Heart rate (Danio rerio embryo [18]): 13.3 µM; EC50 Pericard size Increase (Danio rerio embryo [19]; exposure time: 2 dpf): 208 µM; EC50 Pericard size Increase (Danio rerio embryo [19]; exposure time: 4 dpf): 563 µM; EC20 Lack of SB (Danio rerio embryo [20]): 40.7 µM; EC50 LMR dark (Danio rerio embryo [21]): 461 µM; EC20 Body length Decrease (Danio rerio embryo [22]): 46.4 µM
